Consider four compounds from patent US20180353462A1, “[…] AGENTS […] FLAVONOID DERIVATIVES TARGETING KINASES, SIRTUINS AND ONCOGENIC AGENTS FOR THE TREATMENT OF CANCERS” (priority 2015, published 2018).

One may read the pIC50 as −log10 of the IC50, conventionally taken in molar units.

Molecules are shown by their SMILES. pIC50: −log10 of the molar value. Values joined by “and” are separate entries in the source; they are usually repeats but may differ in a detail not shown here. Equal entries are not always repeated. Where two headings read alike, the source gives them in different places.

In data set [1] the test system is MOLM-14 acute myeloid leukemia cell line. In words: WST-1 anticancer cell proliferation assay, MOLM-14. Format: cell-based. The conditions noted are these: Table 4, read-out: Acute Myeloid Leukemia cell lines MOLM-14 IC50. As to the method: (§1) Anticancer activity was tested against several standard cancer cell lines including brain, breast, Kaposi sarcoma, leukemia, lung, melanoma, tenosynovial giant cell tumor, ovarian, pancreatic, colon and prostate cancer. Cells were trypsinized and plated into 96 well plates in 50 μl of media and incubated overnight. The next day approximately 18 hours after plating, 50 μl of media containing the required flavonoid-based pharmaceutical composition was added per well. Cells were plated at a density so that 72 hours post drug addition, the cells will be in log phase (500)-2000 cells/well). The compounds and extracts were solubilized in Dimethyl sulfoxide (DMSO). The cells are allowed to proliferate for 72 hours 37° C. in humidified atmosphere of 5% CO2. The experiment is terminated using WST-1 (Roche®) 10 μl per well and absorbance is read at 450 nm %690 nm. The effect of drugs on growth is assessed as percent of cell viability. The IC50 values were determined from the extract dose versus control growth curves using Graphpad Prism® software. All experiments were carried out in duplicate and the mean results determined.
A general note: Tetrazolium assays rely on reduction of a dye to a coloured formazan, in cell work by metabolically active cells.

Data set [2] can be described thus: Toxicity and safety screen, in vitro profiling. The text has this: This family of AML-therapeutic targets likewise has the flavone backbone (2-phenyl-1,4-benzopyrone) chemical structure, in this case more defined as shown below (see also FIG. 1B), or any pharmaceutically acceptable salt thereof: […]
For another data set, the system named is MV4-11 (Leukemia). The experiment in a line: WST-1 anticancer cell proliferation assay, MV4-11. In kind it is cell-based. The note with it: Table 4; read-out: Acute Myeloid Leukemia cell lines MV4-11 IC50. As for the experimental part:
as §1

The test system of data set [3] is THP-1 acute myeloid leukemia cell line. The experiment in a line: WST-1 anticancer cell proliferation assay, THP-1. In kind it is cell-based. The conditions noted are these: Table 4; read-out: Acute Myeloid Leukemia cell lines THP-1 IC50. As to the method:
as §1

A further data set relates to Normal Bone marrow. The experiment in a line: Cell viability, normal bone marrow. The conditions noted are these: Table 4. Format: cell-based. As for the experimental part: as §1, with “Bioactivity of the above-described compounds has been verified by an anticancer cell proliferation assay using the WST-1 (4-[3-(4-iodophenyl)-2-(4-nitrophenyl)-2H-5-tetrazolio]-1, 3-benzene disulfonate) colorimetric assay by Roche Life Sciences®. Anticancer” for “Anticancer”

Another data set relates to MV4-11 AML. The experiment in a line: In-vivo efficacy on MV4-11 AML (mice with FLT3-mutated acute myeloid leukemia). The conditions noted are these: mouse. From the text: The results of the anticancer activity are presented in Tables 3 and 4 (above) and in FIG. 6, Hela cells shown at (A) and CMK cells at (B) and MV4-11 and MOLT-14 acute myeloid leukemia cells.
The target in the next data set is T1, FLT3 (Homo sapiens, UniProt P36888).
T1 construct: made in house
T1 sequence (P36888 27-993): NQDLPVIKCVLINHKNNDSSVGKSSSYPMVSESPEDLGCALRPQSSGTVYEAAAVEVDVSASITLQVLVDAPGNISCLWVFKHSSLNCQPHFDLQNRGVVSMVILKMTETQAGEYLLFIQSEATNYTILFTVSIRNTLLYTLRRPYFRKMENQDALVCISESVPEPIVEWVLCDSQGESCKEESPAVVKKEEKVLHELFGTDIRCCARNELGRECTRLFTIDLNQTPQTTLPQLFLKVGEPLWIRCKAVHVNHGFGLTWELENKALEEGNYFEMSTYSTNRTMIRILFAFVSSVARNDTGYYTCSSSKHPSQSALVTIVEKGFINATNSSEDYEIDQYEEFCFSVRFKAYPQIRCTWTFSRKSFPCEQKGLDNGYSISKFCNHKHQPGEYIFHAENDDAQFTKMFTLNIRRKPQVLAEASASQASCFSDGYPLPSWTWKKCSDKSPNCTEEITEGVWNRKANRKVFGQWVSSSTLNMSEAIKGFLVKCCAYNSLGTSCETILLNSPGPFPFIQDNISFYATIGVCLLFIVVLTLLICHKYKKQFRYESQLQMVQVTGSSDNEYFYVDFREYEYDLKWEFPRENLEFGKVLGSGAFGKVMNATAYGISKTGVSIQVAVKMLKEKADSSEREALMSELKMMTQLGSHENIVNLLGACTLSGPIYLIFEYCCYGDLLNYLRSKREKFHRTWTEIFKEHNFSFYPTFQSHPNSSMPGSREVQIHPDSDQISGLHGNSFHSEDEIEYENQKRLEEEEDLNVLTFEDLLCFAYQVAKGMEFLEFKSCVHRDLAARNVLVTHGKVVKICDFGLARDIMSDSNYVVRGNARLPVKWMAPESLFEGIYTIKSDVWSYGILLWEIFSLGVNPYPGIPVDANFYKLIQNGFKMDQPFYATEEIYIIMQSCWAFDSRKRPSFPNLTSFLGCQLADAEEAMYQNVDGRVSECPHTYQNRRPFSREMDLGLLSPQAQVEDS
In kind it is binding. The conditions noted are these: Table 4; read-out: Acute Myeloid Leukemia Kinases FLT3 IC50. As for the experimental part: (§2) Cannabis flavonoids and their analogs were subjected to kinase inhibition assay. The compounds were first screened at a single concentration of 10 μM in the primary assay. […] To determine the kd or IC50 values, competition binding assays were established, authenticated and executed as described previously. […] See also, Karaman et al., “A Quantitative Analysis Of Kinase Inhibitor Selectivity”, Nat. Biotechnol. […] For most assays, kinases were fused to T7 phage strains (Fabian, supra) and for the other assays, kinases were produced in HEK-293 cells after which they were tagged with DNA for quantitative PCR detection. In general, full-length constructs were used for small, single domain kinases, and catalytic domain constructs for large multi-domain kinases. […] The liganded beads were blocked with excess biotin and washed with blocking buffer (SeaBlock (Pierce), 1% BSA, 0.05% Tween 20, 1 mM DTT) to remove unbound ligand and to reduce non-specific phage binding. […] All reactions were performed in polypropylene 384-well plates in a final volume of 0.04 ml. […] The kinase concentration in the eluates was measured by quantitative PCR. An illustration of the kinase interaction process is presented below. Kd/IC50 values were determined using a standard dose response curve using the hill equation. Curves were fitted using a non-linear least square fit with the Levenberg-Marquardt algorithm.

The target in a further data set is T2, FLT3(ITD) (Homo sapiens, UniProt P36888).
T2 construct: In general, full-length constructs were used for small, single domain kinases, and catalytic domain constructs for large multi-domain kinases; fused on or other part: T7 phage fusion or DNA tag for qPCR detection (general statement)
T2 sequence (P36888 1-993): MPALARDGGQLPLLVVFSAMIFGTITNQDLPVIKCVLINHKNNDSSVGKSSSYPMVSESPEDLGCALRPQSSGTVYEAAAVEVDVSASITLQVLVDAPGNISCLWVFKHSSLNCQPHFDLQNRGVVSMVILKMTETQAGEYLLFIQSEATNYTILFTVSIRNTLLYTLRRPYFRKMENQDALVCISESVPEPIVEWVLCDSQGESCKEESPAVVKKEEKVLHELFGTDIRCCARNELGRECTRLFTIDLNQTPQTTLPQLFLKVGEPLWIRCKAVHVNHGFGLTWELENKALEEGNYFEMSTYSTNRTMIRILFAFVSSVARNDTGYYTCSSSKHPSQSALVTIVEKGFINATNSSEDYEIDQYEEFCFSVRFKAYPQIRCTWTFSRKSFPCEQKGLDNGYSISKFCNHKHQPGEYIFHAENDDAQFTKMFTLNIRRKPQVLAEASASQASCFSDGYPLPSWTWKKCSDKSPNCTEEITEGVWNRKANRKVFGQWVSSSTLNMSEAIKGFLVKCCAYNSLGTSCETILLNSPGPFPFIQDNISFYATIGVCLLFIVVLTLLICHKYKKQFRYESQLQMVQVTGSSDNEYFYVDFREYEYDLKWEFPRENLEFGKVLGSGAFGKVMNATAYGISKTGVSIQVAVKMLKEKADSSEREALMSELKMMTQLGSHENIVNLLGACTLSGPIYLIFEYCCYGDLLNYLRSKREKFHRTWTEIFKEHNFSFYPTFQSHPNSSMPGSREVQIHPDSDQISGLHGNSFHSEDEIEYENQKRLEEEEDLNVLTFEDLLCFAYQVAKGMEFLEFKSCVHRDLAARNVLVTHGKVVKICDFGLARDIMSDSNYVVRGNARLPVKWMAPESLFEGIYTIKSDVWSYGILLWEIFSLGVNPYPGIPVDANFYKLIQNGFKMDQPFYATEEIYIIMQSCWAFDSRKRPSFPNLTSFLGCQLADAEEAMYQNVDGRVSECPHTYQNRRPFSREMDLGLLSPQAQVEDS
In kind it is binding. The note with it: Table 4; read-out: Acute Myeloid Leukemia Kinases FLT3-ITD IC50. As for the experimental part: as §2

For data set [4], the system named is 60 cancer cell line panel. The conditions noted are these: US National Cancer Institute 60 cancer cell line panel, NSC:719330; cited from earlier work.

On to `COc1cc(-c2cc(=O)c3c(O)cc(O)cc3o2)ccc1O` [FBLGS-70], for which the pIC50 in data set [1] was 5.77; in the data set with MV4-11 (Leukemia) it was 5.90; in [3], < 4.00; in the data set on Normal Bone marrow, < 4.00. Moreover, the “toxicity or safety screen issues” value in data set [2] is reported as “no detectable toxicity or safety screen issues”. Further, the “in-vivo efficacy on MV4-11 AML” value in the data set on MV4-11 AML is “significant in-vivo efficacy”.

As for `COc1ccc(-c2cc(=O)c3c(O)cc(O)cc3o2)cc1` [FBLGS-73], the negative logarithm of the IC50 (pIC50) in [1] is 5.43 and 5.31; on FLT3, 6.90 and 6.82; on FLT3(ITD), 7.10 and 7.34.

As to `CO[C@@H]1[C@H](N(C)C(=O)c2ccccc2)C[C@H]2O[C@]1(C)n1c3ccccc3c3c4c(c5c6ccccc6n2c5c31)C(=O)NC4` [Midostaurin, reference compound], the pIC50 in [1] (Homo sapiens, MOLM-14) is 7.66.

Take `COc1cc(-c2cc(=O)c3c(O)c(CC=C(C)C)c(O)cc3o2)ccc1O` [cannflavin B]: the “cytotoxicity against cancer cells” value in data set [4] is given as “not cytotoxic”.
